Assay results published in the NIST ThermoML archive (doi:10.1021/je0340755).
Numbers after ± are expanded uncertainties.

What was measured:
[1] = refractive index (Na D-line) (dimensionless); settings: 298.15 K; 101.33 kPa; Liquid; Standard Abbe refractometry
[2] = 101.33 kPa, Liquid; for viscosity: Capillary tube (Ostwald / Ubbelohde) method

OCCCCO [1,4-butanediol]
Settings	refractive index
[1]	1.4442 ± 0.0004

[2]
Settings	mass density [kg/m3]	speed of sound [m/s]	viscosity [mPa·s]
298.15 K	1012.57 ± 0.45	1605.1 ± 6.5	72.62 ± 0.5
308.15 K	1006.4 ± 0.43	1588 ± 6.5	44.87 ± 0.21
318.15 K	1000.76 ± 0.41	1570.8 ± 6.4	29.07 ± 0.15
328.15 K	–	1552.1 ± 6.4	19.48 ± 0.11
338.15 K	987.93 ± 0.45	1529 ± 6.3	13.49 ± 0.09

CC(O)CO (stereo not given) [1,2-propanediol]
Settings	refractive index
[1]	1.4314 ± 0.0004

[2]
Settings	mass density [kg/m3]	viscosity [mPa·s]
298.15 K	1032.77 ± 0.44	43.43 ± 0.21
308.15 K	1025.4 ± 0.42	24.25 ± 0.13
318.15 K	1017.32 ± 0.4	–
328.15 K	1009.56 ± 0.38	9.691 ± 0.079
338.15 K	1001.81 ± 0.36	7.044 ± 0.073

[2], Linear variable-path acoustic interferometer
Settings	speed of sound [m/s]
298.15 K	1500.1 ± 2.2
308.15 K	1488.9 ± 2.2
318.15 K	1438.1 ± 2.2
328.15 K	1401 ± 2.2
338.15 K	1382.8 ± 2.1

OCCCO [propan-1,3-diol]
Settings	refractive index
[1]	1.4386 ± 0.0004

[2]
Settings	mass density [kg/m3]	viscosity [mPa·s]
298.15 K	1049.99 ± 0.49	40.07 ± 0.19
308.15 K	1043.71 ± 0.47	27.25 ± 0.14
318.15 K	1037.37 ± 0.45	17.01 ± 0.1
328.15 K	1030.96 ± 0.43	11.28 ± 0.084
338.15 K	1024.47 ± 0.42	7.939 ± 0.075

[2], Linear variable-path acoustic interferometer
Settings	speed of sound [m/s]
298.15 K	1636.1 ± 2.3
308.15 K	1616 ± 2.3
318.15 K	1599.2 ± 2.2
328.15 K	1575.9 ± 2.2
338.15 K	1557 ± 2.2

CC(O)CCO (stereo not given) [1,3-butanediol]
Settings	refractive index
[1]	1.439 ± 0.0004

[2]
Settings	mass density [kg/m3]	speed of sound [m/s]	viscosity [mPa·s]
298.15 K	1000.03 ± 0.35	1522.1 ± 6.3	97.25 ± 1.1
308.15 K	994.22 ± 0.37	1492.1 ± 6.2	52.5 ± 0.15
318.15 K	988.7 ± 0.38	1472 ± 6.1	30.49 ± 0.15
328.15 K	979.18 ± 0.4	1453.9 ± 6.1	18.91 ± 0.11
338.15 K	971.91 ± 0.42	1436.1 ± 6	12.28 ± 0.087

CCC(O)CO (stereo not given) [1,2-butanediol]
Settings	refractive index
[1]	1.4374 ± 0.0004

[2]
Settings	mass density [kg/m3]	viscosity [mPa·s]
298.15 K	998.86 ± 0.36	57.46 ± 0.2
308.15 K	991.42 ± 0.37	30.18 ± 0.15
318.15 K	983.93 ± 0.39	17.41 ± 0.1
328.15 K	976.09 ± 0.41	10.9 ± 0.083
338.15 K	968.11 ± 0.43	7.257 ± 0.073

[2], Linear variable-path acoustic interferometer
Settings	speed of sound [m/s]
298.15 K	1452 ± 2.2
308.15 K	1423.8 ± 2.2
318.15 K	1396.2 ± 2.2
328.15 K	1387 ± 2.1
338.15 K	1366 ± 2.1

CC(O)C(C)O (stereo not given) [2,3-butanediol]
Settings	refractive index
[1]	1.4366 ± 0.0004

[2]
Settings	mass density [kg/m3]	speed of sound [m/s]	viscosity [mPa·s]
298.15 K	998.57 ± 2	1470.2 ± 7.9	44.68 ± 0.21
308.15 K	992.11 ± 2	1440 ± 7.8	22.95 ± 0.12
318.15 K	984.13 ± 2	1412.2 ± 7.7	12.8 ± 0.088
328.15 K	970.58 ± 2	1392 ± 7.6	7.722 ± 0.074
338.15 K	961.97 ± 2	1373.9 ± 7.5	5.195 ± 0.069

O [water]
Settings	refractive index
[1]	1.3323 ± 0.0004

[2]
Settings	viscosity [mPa·s]
298.15 K	0.89 ± 0.063
308.15 K	0.719 ± 0.063
318.15 K	0.596 ± 0.063
328.15 K	0.503 ± 0.063
338.15 K	0.438 ± 0.063

[2], Linear variable-path acoustic interferometer
Settings	speed of sound [m/s]
298.15 K	1498 ± 2.1
308.15 K	1519 ± 2.2
318.15 K	1535.1 ± 2.2
328.15 K	1545 ± 2.2
338.15 K	1551 ± 2.2
